System: 633275-114-R-J1-PDC complex spheroids, viability
Test: Anticancer human tumor 633275-114-R-J1-PDC patient-derived endometrial adenocarcinoma cell line growth inhibition [GQUAD]
Details: for IC50: curve of first compound; for viability, T/C: stronger effect = lower value
Description: DNA G-quadruplex Stabilizer Agents in Combinations in Complex Spheroids
A high-throughput screen of multi-cell type tumor spheroids was designed to identify active combinations of DNA G-quadruplex stabilizer agents and targeted small molecules. Complex spheroids include a stromal component modeled by human endothelial cells (HUVEC) and fibroblasts modeled by human mesenchymal stem cells (MSCs). The concentration ranges selected for each drug and investigational agent were based upon clinically achievable concentrations if the clinical Cmax of the agent was known.
Compounds. The drugs and investigational agents: pidnarulex (CX-5461; NSC782164), APTO-253 (NSC789042), BRACO-19 (NSC847499), peposertib (NSC802822), ceralasertib (NSC780249), elimusertib (NSC800525), camonsertib (NSC841442), AZD-1390 (NSC803789), olaparib (NSC753686), talazoparib (NSC767125), ART-558 (NSC835418), sotorasib (NSC818433), MRTX-1133 (NSC836407), SN-38 (NSC673596), topotecan (NSC609699), etoposide (NSC141540), doxorubicin (NSC123127), gemcitabine (NSC613327), 5-fluorouracil (NSC19893), paclitaxel (NSC125973), vemurafenib (NSC761431), panobinostat (NSC761190), R-306465 (JNJ-16241199; NSC773264), adavosertib (NSC754352), TP-3654 (NSC805149), carboplatin (NSC241240), KSQ-4279 (NSC840948), and staurosporine (NSC755774) were obtained from the National Cancer Institute (NCI) Developmental Therapeutics Program Chemical Repository (34). The FDA-approved anticancer drug set is available from the NCI Developmental Therapeutics Program. […] The stock solutions were prepared in dimethyl sulfoxide (DMSO, Sigma-Aldrich, St. Louis, MO, cat. D2650) at 800-fold the tested concentration and stored at -70 degrees C prior to their use. All drugs and investigational agents were tested over a range starting from a high concentration at or near the clinical Cmax and decreasing in half-log increments. If the clinical Cmax for an agent had not been determined, the highest concentration tested was 10 microM.
2.3 Cell Culture. All cells were maintained in an incubator at 37 degrees C and 5% CO2 with 95% humidity. The PDC lines were cultured according to standard operating procedures established by the NCI PDMR. All PDCs were thawed and cultured in Matrigel-coated flasks prepared with a working solution of 1X Ham's F-12 nutrient mix, without supplementation (Invitrogen, cat. 11765054), 100 U/mL penicillin-streptomycin (Invitrogen, cat. 15140122), and 2.5% Matrigel (Corning Inc., cat. 354248) for the first three passages. The 857933-349-R-J2-PDC line was cultured in 6C/Colon 1B media, which includes advanced DMEM/F-12 (Thermo Fisher Scientific, cat. 12634028), 10 mM HEPES (Thermo Fisher Scientific, cat. 15630080), 1X GlutaMAX supplement (Thermo Fisher Scientific, cat. 35050061), 0.1 mg/mL primocin (InvivoGen, cat. ant-pm-2), 10% defined fetal bovine serum, heat inactivated (HyClone Laboratories Inc., cat. SH30070.03HI), 50% L-WRN conditioned media (ATCC, cat. CRL-3276), 1.25 mM N-Acetyl-L-cysteine (Sigma-Aldrich, cat. A9165), 10 mM nicotinamide (Sigma-Aldrich, cat. N0636), 1X B-27 supplement (Thermo Fisher Scientific, cat. 17504044), 1X N-2 supplement (Thermo Fisher Scientific, cat. 17502048), 10 microM Y-27632 dihydrochloride (Tocris Bioscience, cat. 1254), and 50 ng/mL human EGF recombinant protein (Thermo Fisher Scientific, cat. PHG0311). The 485176-168-R4-J1-PDC line was cultured in Panc media, which includes all 6C/Colon 1B media components plus 100 ng/mL human FGF-10 (Thermo Fisher Scientific, cat. 100-26), 500 nM SB-431542 (Selleckchem, cat. S1067), and gastrin (Tocris, cat. 3006).
[…]

[1] = second compound 0.0316 µM, first compound 0.0316 µM
[2] = second compound 0.0316 µM, first compound 0.316 µM
[3] = second compound 0.1 µM, first compound 0.0316 µM
[4] = second compound 0.1 µM, first compound 0.316 µM
[5] = second compound 0.316 µM, first compound 0.0316 µM
[6] = second compound 0.316 µM, first compound 0.316 µM
[7] = second compound 1 µM, first compound 0.0316 µM
[8] = second compound 1 µM, first compound 0.316 µM
[9] = second compound 3.16 µM, first compound 0.0316 µM
[10] = second compound 3.16 µM, first compound 0.316 µM
[11] = second compound 10 µM, first compound 0.0316 µM
[12] = second compound 10 µM, first compound 0.316 µM
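Note: spheroids exposed to the agents for seven days.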
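Throughout, for viability, T/C: percent of DMSO vehicle control viability which is 100%.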

## Cn1ncnc1[C@H]1c2n[nH]c(=O)c3cc(F)cc(c23)N[C@@H]1c1ccc(F)cc1 + Cc1[nH]c2ccc(F)cc2c1-c1nc2c3cccnc3c3ncccc3c2[nH]1
Second compound 0.0316 µM
  IC50: > 316 nM
Second compound 0.1 µM
  IC50: > 316 nM
Second compound 0.316 µM
  IC50: > 316 nM
Second compound 1 µM
  IC50: > 316 nM
Second compound 3.16 µM
  IC50: 257 nM
Second compound 10 µM
  IC50: > 316 nM
Second compound 0.0316 µM, first compound 0.000999 µM
  viability, T/C: 96.6%
Second compound 0.0316 µM, first compound 0.00316 µM
  viability, T/C: 83.2%
Second compound 0.0316 µM, first compound 0.00999 µM
  viability, T/C: 83.7%
[1]
  viability, T/C: 75.4%
Second compound 0.0316 µM, first compound 0.0999 µM
  viability, T/C: 66.8%
[2]
  viability, T/C: 64.4%
Second compound 0.1 µM, first compound 0.000999 µM
  viability, T/C: 93%
Second compound 0.1 µM, first compound 0.00316 µM
  viability, T/C: 93%
Second compound 0.1 µM, first compound 0.00999 µM
  viability, T/C: 91.7%
[3]
  viability, T/C: 75.5%
Second compound 0.1 µM, first compound 0.0999 µM
  viability, T/C: 67.1%
[4]
  viability, T/C: 57.6%
Second compound 0.316 µM, first compound 0.000999 µM
  viability, T/C: 92.7%
Second compound 0.316 µM, first compound 0.00316 µM
  viability, T/C: 92%
Second compound 0.316 µM, first compound 0.00999 µM
  viability, T/C: 82.6%
[5]
  viability, T/C: 82.4%
Second compound 0.316 µM, first compound 0.0999 µM
  viability, T/C: 69.1%
[6]
  viability, T/C: 57.2%
Second compound 1 µM, first compound 0.000999 µM
  viability, T/C: 91%
Second compound 1 µM, first compound 0.00316 µM
  viability, T/C: 85.4%
Second compound 1 µM, first compound 0.00999 µM
  viability, T/C: 79.1%
[7]
  viability, T/C: 72.6%
Second compound 1 µM, first compound 0.0999 µM
  viability, T/C: 66.6%
[8]
  viability, T/C: 54.2%
Second compound 3.16 µM, first compound 0.000999 µM
  viability, T/C: 74%
Second compound 3.16 µM, first compound 0.00316 µM
  viability, T/C: 66.6%
Second compound 3.16 µM, first compound 0.00999 µM
  viability, T/C: 65.1%
[9]
  viability, T/C: 61.2%
Second compound 3.16 µM, first compound 0.0999 µM
  viability, T/C: 52.3%
[10]
  viability, T/C: 49.4%
Second compound 10 µM, first compound 0.000999 µM
  viability, T/C: 73.7%
Second compound 10 µM, first compound 0.00316 µM
  viability, T/C: 77.7%
Second compound 10 µM, first compound 0.00999 µM
  viability, T/C: 66.5%
[11]
  viability, T/C: 60.2%
Second compound 10 µM, first compound 0.0999 µM
  viability, T/C: 55.9%
[12]
  viability, T/C: 51.8%

## CC1COCCN1c1cc(C2(O)CC3CCC(C2)O3)c2cnn(-c3ccn[nH]3)c2n1 (centres undefined) + Cc1cnc(CNC(=O)c2c(=O)c3ccc(N4CCCN(C)CC4)nc3n3c2sc2ccccc23)cn1
Second compound 0.0316 µM
  IC50: < 31.6 nM
Second compound 0.1 µM
  IC50: < 31.6 nM
Second compound 0.316 µM
  IC50: < 31.6 nM
Second compound 1 µM
  IC50: < 31.6 nM
Second compound 3.16 µM
  IC50: < 31.6 nM
Second compound 10 µM
  IC50: < 31.6 nM
[1]
  viability, T/C: 37.6%
Second compound 0.0316 µM, first compound 0.1 µM
  viability, T/C: 31.2%
[2]
  viability, T/C: 25%
Second compound 0.0316 µM, first compound 1 µM
  viability, T/C: 19.6%
Second compound 0.0316 µM, first compound 3.16 µM
  viability, T/C: 12.4%
Second compound 0.0316 µM, first compound 10 µM
  viability, T/C: 8.78%
[3]
  viability, T/C: 38.3%
Second compound 0.1 µM, first compound 0.1 µM
  viability, T/C: 28.8%
[4]
  viability, T/C: 24.3%
Second compound 0.1 µM, first compound 1 µM
  viability, T/C: 17.5%
Second compound 0.1 µM, first compound 3.16 µM
  viability, T/C: 11.4%
Second compound 0.1 µM, first compound 10 µM
  viability, T/C: 7.39%
[5]
  viability, T/C: 36.4%
Second compound 0.316 µM, first compound 0.1 µM
  viability, T/C: 33%
[6]
  viability, T/C: 25%
Second compound 0.316 µM, first compound 1 µM
  viability, T/C: 15.8%
Second compound 0.316 µM, first compound 3.16 µM
  viability, T/C: 11.2%
Second compound 0.316 µM, first compound 10 µM
  viability, T/C: 6.81%
[7]
  viability, T/C: 29.6%
Second compound 1 µM, first compound 0.1 µM
  viability, T/C: 27.9%
[8]
  viability, T/C: 24.2%
Second compound 1 µM, first compound 1 µM
  viability, T/C: 14.8%
Second compound 1 µM, first compound 3.16 µM
  viability, T/C: 10.2%
Second compound 1 µM, first compound 10 µM
  viability, T/C: 4.76%
[9]
  viability, T/C: 31.6%
Second compound 3.16 µM, first compound 0.1 µM
  viability, T/C: 25.4%
[10]
  viability, T/C: 19.5%
Second compound 3.16 µM, first compound 1 µM
  viability, T/C: 12.9%
Second compound 3.16 µM, first compound 3.16 µM
  viability, T/C: 9.19%
Second compound 3.16 µM, first compound 10 µM
  viability, T/C: 5.97%
[11]
  viability, T/C: 29.4%
Second compound 10 µM, first compound 0.1 µM
  viability, T/C: 24.4%
[12]
  viability, T/C: 17%
Second compound 10 µM, first compound 1 µM
  viability, T/C: 12.7%
Second compound 10 µM, first compound 3.16 µM
  viability, T/C: 10.2%
Second compound 10 µM, first compound 10 µM
  viability, T/C: 0.18%
